Reference: ChEMBL document CHEMBL3046617, “Effects of fungicides on in vitro spore germination and mycelial growth of the phytopathogens Leptosphaeria maculans and L. biglobosa (phoma stem canker of oilseed rape)” (2010)
Values after ≈ are worked out from the molar mass of the structure shown. Active and inactive are the calls of the source. The calls are words filed in the database; no cut-off is given here.

Legend:
Plenodomus biglobosus [1] = test: Antifungal activity against Leptosphaeria biglobosa assessed as inhibition of conidia germination at 4 ug/ml after 22 hr; type: functional
Plenodomus lingam [2] = test: Antifungal activity against Leptosphaeria maculans assessed as inhibition of conidia germination at 4 ug/ml after 22 hr; type: functional
Plenodomus biglobosus [3] = test: Antifungal activity against Leptosphaeria biglobosa assessed as reduction of conidia production at 1 to 4 ug/ml after 2 weeks; type: functional, organism-based
Plenodomus biglobosus [4] = test: Antifungal activity against Leptosphaeria biglobosa assessed as viable ascospore at 1 to 4 ug/ml after 1 week; type: functional, organism-based
Plenodomus lingam [5] = test: Antifungal activity against Leptosphaeria maculans assessed as viable ascospore at 1 to 4 ug/ml after 1 week; type: functional, organism-based
Plenodomus biglobosus [6] = test: Antifungal activity against Leptosphaeria biglobosa assessed as reduction of germ tube length at 4 ug/ml after 22 hr relative to control; type: functional; parameters: scale not given: the % may be the effect or the level left
Plenodomus biglobosus [7] = test: Antifungal activity against Leptosphaeria biglobosa assessed as reduction of germ tube length at 2 ug/ml after 22 hr relative to control; type: functional; parameters: scale not given: the % may be the effect or the level left
Plenodomus biglobosus [8] = test: Antifungal activity against Leptosphaeria biglobosa assessed as reduction of germ tube length at 1 ug/ml after 22 hr relative to control; type: functional; parameters: scale not given: the % may be the effect or the level left
Plenodomus lingam [9] = test: Antifungal activity against Leptosphaeria maculans assessed as reduction of germ tube length at 4 ug/ml after 22 hr relative to control; type: functional; parameters: scale not given: the % may be the effect or the level left
Plenodomus lingam [10] = test: Antifungal activity against Leptosphaeria maculans assessed as reduction of germ tube length at 2 ug/ml after 22 hr relative to control; type: functional; parameters: scale not given: the % may be the effect or the level left
Plenodomus lingam [11] = test: Antifungal activity against Leptosphaeria maculans assessed as reduction of germ tube length at 1 ug/ml after 22 hr relative to control; type: functional; parameters: scale not given: the % may be the effect or the level left
Plenodomus lingam [12] = test: Antifungal activity against Leptosphaeria maculans assessed as viable conidia at 2 to 4 ug/ml after 1 week; type: functional, organism-based
Plenodomus biglobosus [13] = test: Antifungal activity against Leptosphaeria biglobosa assessed as viable conidia at 2 to 4 ug/ml after 1 week; type: functional, organism-based
Plenodomus lingam [14] = test: Antifungal activity against Leptosphaeria maculans assessed as reduction of conidia production at 1 to 4 ug/ml after 2 weeks; type: functional, organism-based
Plenodomus lingam [15] = test: Antifungal activity against Leptosphaeria maculans assessed as ascospore germination at 1 to 4 ug/ml after 22 hr; type: functional
Plenodomus biglobosus [16] = test: Antifungal activity against Leptosphaeria biglobosa assessed as ascospore germination at 1 to 4 ug/ml after 22 hr; type: functional
Plenodomus lingam [17] = test: Antifungal activity against Leptosphaeria maculans; type: functional; conditions: read-out: ED50 (the source's name)
Plenodomus biglobosus [18] = test: Antifungal activity against Leptosphaeria biglobosa assessed as inhibition of conidia germination at 0.75 to 3 ug/ml after 22 hr; type: functional, organism-based
Plenodomus lingam [19] = test: Antifungal activity against Leptosphaeria maculans assessed as inhibition of conidia germination at 0.75 to 3 ug/ml after 22 hr; type: functional, organism-based
Plenodomus lingam [20] = test: Antifungal activity against Leptosphaeria maculans assessed as reduction of conidia production at 0.75 to 3 ug/ml after 2 weeks; type: functional, organism-based
Plenodomus biglobosus [21] = test: Antifungal activity against Leptosphaeria biglobosa assessed as reduction of conidia production at 0.75 to 3 ug/ml after 2 weeks; type: functional, organism-based
Plenodomus biglobosus [22] = test: Antifungal activity against Leptosphaeria biglobosa assessed as viable ascospore at 0.75 to 3 ug/ml after 1 week; type: functional, organism-based
Plenodomus lingam [23] = test: Antifungal activity against Leptosphaeria maculans assessed as viable ascospore at 0.75 to 3 ug/ml after 1 week; type: functional, organism-based
Plenodomus biglobosus [24] = test: Antifungal activity against Leptosphaeria biglobosa assessed as reduction of germ tube length at 3 ug/ml after 22 hr relative to control; type: functional; parameters: scale not given: the % may be the effect or the level left
Plenodomus biglobosus [25] = test: Antifungal activity against Leptosphaeria biglobosa assessed as reduction of germ tube length at 1.5 ug/ml after 22 hr relative to control; type: functional; parameters: scale not given: the % may be the effect or the level left
Plenodomus biglobosus [26] = test: Antifungal activity against Leptosphaeria biglobosa assessed as reduction of germ tube length at 0.75 ug/ml after 22 hr relative to control; type: functional; parameters: scale not given: the % may be the effect or the level left
Plenodomus lingam [27] = test: Antifungal activity against Leptosphaeria maculans assessed as reduction of germ tube length at 3 ug/ml after 22 hr relative to control; type: functional; parameters: scale not given: the % may be the effect or the level left
Plenodomus lingam [28] = test: Antifungal activity against Leptosphaeria maculans assessed as reduction of germ tube length at 1.5 ug/ml after 22 hr relative to control; type: functional; parameters: scale not given: the % may be the effect or the level left
Plenodomus lingam [29] = test: Antifungal activity against Leptosphaeria maculans assessed as reduction of germ tube length at 0.75 ug/ml after 22 hr relative to control; type: functional; parameters: scale not given: the % may be the effect or the level left
Plenodomus biglobosus [30] = test: Antifungal activity against Leptosphaeria biglobosa assessed as inhibition of mycelial growth after 7 days; type: functional; conditions: 168 h, read-out: ED50 (the source's name)
Plenodomus lingam [31] = test: Antifungal activity against Leptosphaeria maculans assessed as inhibition of mycelial growth after 17 days; type: functional; conditions: 408 h, read-out: ED50 (the source's name)
Plenodomus biglobosus [32] = test: Antifungal activity against Leptosphaeria biglobosa assessed as viable conidia at 0.75 to 3 ug/ml after 1 week; type: functional, organism-based
Plenodomus lingam [33] = test: Antifungal activity against Leptosphaeria maculans assessed as viable conidia at 0.75 to 3 ug/ml after 1 week; type: functional, organism-based
Plenodomus lingam [34] = test: Antifungal activity against Leptosphaeria maculans assessed as ascospore germination at 0.75 to 3 ug/ml after 22 hr; type: functional
Plenodomus biglobosus [35] = test: Antifungal activity against Leptosphaeria biglobosa assessed as ascospore germination at 0.75 to 3 ug/ml after 22 hr; type: functional
Plenodomus biglobosus [36] = test: Antifungal activity against Leptosphaeria biglobosa assessed as ascospore germination at 0.25 to 1 ug/ml after 22 hr; type: functional
Plenodomus lingam [37] = test: Antifungal activity against Leptosphaeria maculans assessed as reduction of germ tube length at 0.5 ug/ml after 22 hr relative to control; type: functional; parameters: scale not given: the % may be the effect or the level left
Plenodomus lingam [38] = test: Antifungal activity against Leptosphaeria maculans assessed as reduction of germ tube length at 0.25 ug/ml after 22 hr relative to control; type: functional; parameters: scale not given: the % may be the effect or the level left
Plenodomus biglobosus [39] = test: Antifungal activity against Leptosphaeria biglobosa assessed as inhibition of conidia germination at 0.25 to 1 ug/ml after 22 hr; type: functional, organism-based
Plenodomus lingam [40] = test: Antifungal activity against Leptosphaeria maculans assessed as inhibition of conidia germination at 0.25 to 1 ug/ml after 22 hr; type: functional, organism-based
Plenodomus lingam [41] = test: Antifungal activity against Leptosphaeria maculans assessed as reduction of conidia production at 0.25 to 1 ug/ml after 2 weeks; type: functional, organism-based
Plenodomus biglobosus [42] = test: Antifungal activity against Leptosphaeria biglobosa assessed as reduction of conidia production at 0.25 to 1 ug/ml after 2 weeks; type: functional, organism-based
Plenodomus biglobosus [43] = test: Antifungal activity against Leptosphaeria biglobosa assessed as viable ascospore at 0.25 to 1 ug/ml after 1 week; type: functional, organism-based
Plenodomus lingam [44] = test: Antifungal activity against Leptosphaeria maculans assessed as viable ascospore at 0.25 to 1 ug/ml after 1 week; type: functional, organism-based
Plenodomus biglobosus [45] = test: Antifungal activity against Leptosphaeria biglobosa assessed as reduction of germ tube length at 0.5 ug/ml after 22 hr relative to control; type: functional; parameters: scale not given: the % may be the effect or the level left
Plenodomus biglobosus [46] = test: Antifungal activity against Leptosphaeria biglobosa assessed as reduction of germ tube length at 0.25 ug/ml after 22 hr relative to control; type: functional; parameters: scale not given: the % may be the effect or the level left
Plenodomus biglobosus [47] = test: Antifungal activity against Leptosphaeria biglobosa assessed as viable conidia at 0.25 to 1 ug/ml after 1 week; type: functional, organism-based
Plenodomus lingam [48] = test: Antifungal activity against Leptosphaeria maculans assessed as viable conidia at 0.25 to 1 ug/ml after 1 week; type: functional, organism-based
Plenodomus lingam [49] = test: Antifungal activity against Leptosphaeria maculans assessed as ascospore germination at 0.25 to 1 ug/ml after 22 hr; type: functional

CCCCNC(=O)n1c(NC(=O)OC)nc2ccccc21 [BENOMYL]
inhibition at 4 µg/mL (Plenodomus biglobosus [1]): 15%
inhibition at 4 µg/mL (Plenodomus lingam [2]): > 80%
Activity (Plenodomus biglobosus [3]): Active
Activity (Plenodomus biglobosus [4]): inactive
Activity (Plenodomus lingam [5]): inactive
Activity (Plenodomus biglobosus [6]): 81.6%
Activity (Plenodomus biglobosus [7]): 85.5%
Activity (Plenodomus biglobosus [8]): 4.5%
Activity (Plenodomus lingam [9]): 65.8%
Activity (Plenodomus lingam [10]): 68.3%
Activity (Plenodomus lingam [11]): 46.8%
Activity (Plenodomus lingam [12]): Active
Activity (Plenodomus biglobosus [13]): Active
Activity (Plenodomus lingam [14]): inactive
Activity (Plenodomus lingam [15]): 96%
Activity (Plenodomus biglobosus [16]): 94%

OC(Cn1cncn1)(c1ccc(F)cc1)c1ccccc1F (stereo not drawn) [FLUTRIAFOL]
EC50 (Plenodomus lingam [17]): 0.45 µg/mL (≈ 1.49 µM)

CC(C)(C)C(O)(CCc1ccc(Cl)cc1)Cn1cncn1 (stereo not drawn) [TEBUCONAZOLE]
inhibition (Plenodomus biglobosus [18]): Active
inhibition (Plenodomus lingam [19]): Active
Activity (Plenodomus lingam [20]): inactive
Activity (Plenodomus biglobosus [21]): Active
Activity (Plenodomus biglobosus [22]): inactive
Activity (Plenodomus lingam [23]): inactive
Activity (Plenodomus biglobosus [24]): 69.6%
Activity (Plenodomus biglobosus [25]): 63.4%
Activity (Plenodomus biglobosus [26]): 64.3%
Activity (Plenodomus lingam [27]): 43.2%
Activity (Plenodomus lingam [28]): 36.7%
Activity (Plenodomus lingam [29]): 44%
EC50 (Plenodomus biglobosus [30]): 1.45 µg/mL (≈ 4.71 µM)
EC50 (Plenodomus lingam [31]): 0.34 µg/mL (≈ 1.1 µM)
Activity (Plenodomus biglobosus [32]): inactive
Activity (Plenodomus lingam [33]): inactive
Activity (Plenodomus lingam [34]): 96%
Activity (Plenodomus biglobosus [35]): 94%

C[Si](Cn1cncn1)(c1ccc(F)cc1)c1ccc(F)cc1 [FLUSILAZOLE]
Activity (Plenodomus biglobosus [36]): 94%
Activity (Plenodomus lingam [37]): 22.1%
Activity (Plenodomus lingam [38]): 15.9%
inhibition (Plenodomus biglobosus [39]): Active
inhibition (Plenodomus lingam [40]): Active
Activity (Plenodomus lingam [41]): inactive
Activity (Plenodomus biglobosus [42]): Active
Activity (Plenodomus biglobosus [43]): inactive
Activity (Plenodomus lingam [44]): inactive
Activity (Plenodomus biglobosus [8]): 53.8%
Activity (Plenodomus biglobosus [45]): 56.3%
Activity (Plenodomus biglobosus [46]): 56.9%
Activity (Plenodomus lingam [11]): 22.5%
EC50 (Plenodomus biglobosus [30]): 0.67 µg/mL (≈ 2.12 µM)
EC50 (Plenodomus lingam [31]): 0.27 µg/mL (≈ 0.856 µM)
Activity (Plenodomus biglobosus [47]): inactive
Activity (Plenodomus lingam [48]): inactive
Activity (Plenodomus lingam [49]): 96%
